Data published in patent US20230183237A1, “COMPETITIVE AND NONCOMPETITIVE INHIBITORS OF THE MUSCARINIC ACETYLCHOLINE RECEPTOR M5” (Vanderbilt University, priority 2020, published 2023).

biological target: T1, hM5 (Homo sapiens, UniProt P08912); test: Calcium mobilization concentration-response (IC50 vs EC80 acetylcholine), CHO hM5; type: cell-based; conditions: CELL LINE hM5; calcium mobilization, EC80 acetylcholine addition; read-out: IC50
T1 construct: expressed in transfected cells
T1 sequence (P08912 1-532): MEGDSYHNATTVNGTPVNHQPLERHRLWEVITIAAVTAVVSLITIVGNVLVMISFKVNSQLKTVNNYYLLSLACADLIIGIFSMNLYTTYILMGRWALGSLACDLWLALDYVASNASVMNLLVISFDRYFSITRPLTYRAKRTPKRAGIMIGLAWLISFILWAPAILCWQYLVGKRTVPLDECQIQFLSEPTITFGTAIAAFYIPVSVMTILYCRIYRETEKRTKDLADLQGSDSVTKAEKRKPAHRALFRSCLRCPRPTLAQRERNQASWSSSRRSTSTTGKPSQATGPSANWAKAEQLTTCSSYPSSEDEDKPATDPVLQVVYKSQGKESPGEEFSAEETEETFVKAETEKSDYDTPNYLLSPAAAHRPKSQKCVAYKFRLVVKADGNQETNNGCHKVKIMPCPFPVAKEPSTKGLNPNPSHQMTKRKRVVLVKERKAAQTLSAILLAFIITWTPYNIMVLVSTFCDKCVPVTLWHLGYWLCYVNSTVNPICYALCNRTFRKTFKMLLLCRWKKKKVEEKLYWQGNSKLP
Outline: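 CHO cells stably expressing hM5, dye-loaded, in HBSS/20 mM HEPES/2.5 mM probenecid, pH 7.4. Compounds were pre-incubated 140 s before an EC80 acetylcholine challenge, with calcium flux read kinetically.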

| Structure (SMILES) | IC50 |
| --- | --- |
| Cc1cc2ncnn2cc1C1CCN(S(=O)(=O)c2cccc3nonc23)CC1 [Compound 168, 4-((4-(7-methyl-[1,2,4]triazolo[1,5-a]pyridin-6-yl)piperidin-1-yl)sulfonyl)benzo[c][1,2,5]oxadiazole] | 821 nM |
| Cc1c(S(=O)(=O)N2CCC(c3cn4ncnc4cc3C3CC3)CC2)cnn1C [Compound 345, 7-cyclopropyl-6-(1-((1,5-dimethyl-1H-pyrazol-4-yl)sulfonyl)piperidin-4-yl)-[1,2,4]triazolo[1,5-a]pyridine] | 134 nM |
| COc1cc2ncnn2cc1C1CCN(S(=O)(=O)c2cc3c(cc2F)OCC3)CC1 [Compound 81, 6-(1-((6-fluoro-2,3-dihydrobenzofuran-5-yl)sulfonyl)piperidin-4-yl)-7-methoxy-[1,2,4]triazolo[1,5-a]pyridine] | > 10000 nM |
| O=S(=O)(c1ccc2c(c1)CCO2)N1CCC(c2cn3ccnc3cn2)CC1 [Compound 27, 6-(1-((2,3-dihydrobenzofuran-5-yl)sulfonyl)piperidin-4-yl)imidazo[1,2-a]pyrazine] | > 10000 nM |
| Cc1cc2nccn2cc1C1CCN(S(=O)(=O)c2ccc(Cl)nc2)CC1 [Compound 70, 6-(1-((6-chloropyridin-3-yl)sulfonyl)piperidin-4-yl)-7-methylimidazo[1,2-a]pyridine] | > 10000 nM |
| Cc1c(C2CCN(S(=O)(=O)c3ccc4c(c3)CCO4)CC2)cn2ncnc2c1F [Compound 267, 6-(1-((2,3-dihydrobenzofuran-5-yl)sulfonyl)piperidin-4-yl)-8-fluoro-7-methyl-[1,2,4]triazolo[1,5-a]pyridine] | 208 nM |
| Cc1cc2ncnn2cc1C1CCN(S(=O)(=O)c2c(C(F)(F)F)nn(C)c2C)CC1 [Compound 118, 6-(1-((1,5-dimethyl-3-(trifluoromethyl)-1H-pyrazol-4-yl)sulfonyl)piperidin-4-yl)-7-methyl-[1,2,4]triazolo[1,5-a]pyridine] | 81 nM |
| Cc1cc2ncnn2cc1C1CCN(S(=O)(=O)c2cccc3c2OCCO3)CC1 [Compound 152, 6-(1-((2,3-dihydrobenzo[b]dioxin-5-yl)sulfonyl)piperidin-4-yl)-7-methyl-[1,2,4]triazolo[1,5-a]pyridine] | 117 nM |
| Cc1cc2ncnn2cc1C1CCN(S(=O)(=O)c2c[nH]cn2)CC1 [Compound 155, 6-(1-((1H-imidazol-4-yl)sulfonyl)piperidin-4-yl)-7-methyl-[1,2,4]triazolo[1,5-a]pyridine] | > 10000 nM |
| Cc1cc2c(cc1S(=O)(=O)N1CCC(c3ccc4ncnn4c3C)CC1)C(C)CO2 (stereo not drawn) [Compound 85, 6-(1-((3,6-dimethyl-2,3-dihydrobenzofuran-5-yl)sulfonyl)piperidin-4-yl)-5-methyl-[1,2,4]triazolo[1,5-a]pyridine] | 6300 nM |
| Cc1cc(C(F)(F)F)ncc1C1CCN(S(=O)(=O)c2cnn(C)c2C)CC1 [Compound 394, 5-(1-((1,5-dimethyl-1H-pyrazol-4-yl)sulfonyl)piperidin-4-yl)-4-methyl-2-(trifluoromethyl)pyridine] | 2510 nM |
| Cc1cc2ncnn2cc1C1CCN(S(=O)(=O)c2cc3c(cc2C)OCC3C)CC1 (stereo not drawn) [Compound 100, 6-(1-((3,6-dimethyl-2,3-dihydrobenzofuran-5-yl)sulfonyl)piperidin-4-yl)-7-methyl-[1,2,4]triazolo[1,5-a]pyridine] | 39 nM |

same assay, conditions: CELL LINE hM5; vs EC80 acetylcholine; read-out: IC50

| Structure (SMILES) | IC50 |
| --- | --- |
| Cc1cc(S(=O)(=O)N2CCC(c3cn4ncnc4cc3Cl)CC2)sn1 [Compound 483, 5-((4-(7-chloro-[1,2,4]triazolo[1,5-a]pyridin-6-yl)piperidin-1-yl)sulfonyl)-3-methylisothiazole] | 6 nM |
| Cc1nnc(S(=O)(=O)N2CCC(c3cn4ncnc4cc3Cl)CC2)o1 [Compound 607] | 151 nM |
| CO[C@H]1CN(S(=O)(=O)c2cnn(C)c2Cl)CC[C@@H]1c1cn2ncnc2cc1C (single isomer, unassigned) [Compound 460] | > 10000 nM |
